Results on nine compounds are retold here after patent US8691577B2, “Somatic embryogenesis of Jatropha curcas from ovules” (Joil (S) Pte Ltd., priority 2008, dated 2014).

SMILES strings stand for the structures. Entries after “also recorded” stand apart in the source; their conditions may differ.

The test system of data set [1] is embryogenic callus from ovules of Jatropha curcas. Description: Somatic embryo development and maturation from embryogenic callus. In kind it is cell-based. As to the method: (§1) The sterilized flower buds were dissected using stereo microscope and the ovules were isolated and injured using dissection needle. The injured ovule explants were inoculated onto initiation medium supplemented with different phytohormones and incubated in dark for 40 days. The callus induced from these ovules was transferred to the fresh initiation medium and cultured in the light (16/8 h (light/dark) photoperiod period, light intensity of 25 μE m^−2s^−1) for somatic embryo development and maturation. The callus with developing and maturing somatic embryos were subcultured every two weeks. The mature cotyledon shaped somatic embryos that developed from this embryogenic callus were transferred to germination medium for germination. The germinating somatic embryos were subcultured every two weeks. The germinated plantlets were hardened and transferred to green house. All cultures were maintained at 25° C.±2° C. with 55%-60% relative humidity. Approximately 12-15 mature cotyledon shaped embryos were developed per 100 mg of embryogenic callus, and 95% of the somatic embryos were developed.
Induction of callus occurred in MS medium containing different auxins and cytokinins individually as well as in combinations.

Data set [2] has as its system ovule explants of Jatropha curcas. Description: Induction of embryogenic callus from ovule explants on MS initiation medium. Type of data set: cell-based.
Description: (§2) The initiation medium was MS basal medium (MS mineral salts and vitamins) supplemented with sucrose (3%) as the carbon source and included phytoagar (0.8%) as a gelling agent. The pH of the medium was 5.8. The germination medium was MS basal medium supplemented with sucrose (3%) as the carbon source and included phytogel (0.25%) as a gelling agent. The pH of the medium was 5.8. The media were dispensed into sterilized Petri dish (90×15 mm size, plastic polycarbonate, Canada). The chemicals used for media preparations were of analytical grade (Duchefa Biochemie, Haarlem, The Netherlands and Sigma Aldrich, Inc., St Louis, USA).
Different hormones were added to the media for the development of the method according to the present invention. In general, the media contained a reduced concentration of phytohormones. The hormones that were tested in the media were phytohormones that will affect growth in the desired manner during different stages of tissue culture. Examples of phytohormones that were tested include natural or synthetic auxin (2,4-D, indole-3-acetic acid (IAA), IBA), cytokinin (BA, KN,), GA3, or cytokinin-active urea derivatives (such as TDZ). The hormones were tested singly or in combination. For induction of embryogenic callus, only 2,4-D (2.26, 4.52, 6.78 and 9.02 μM) was effective.
as §1

For data set [3], the system named is leaf explants of J. curcas. The settings on record: Jha et al. (2007), cited from earlier work.
Data set [4] concerns mature somatic embryos of Jatropha curcas. Kind of data set: Germination of somatic embryos and growth of plantlets on MS germination medium. Type of data set: cell-based. Particulars: for growth of germinated plantlets: added to germination medium (MS with IBA and GA3); for germination of somatic embryos: auxin in combination with GA3 (0.72, 1.44, 2.88, 5.76 μM) in MS medium, IBA 1.23-4.92 μM, IAA 1.42-8.56 μM, NAA 1.34-8.04 μM.
Description: as §2, §1

For data set [5], the system named is embryogenic callus of Jatropha curcas. Description: Production of double haploid plantlets by treating embryogenic callus with a mitotic inhibitor. Type of data set: cell-based. As to the method:
Double haploid plants are produced by treating the embryogenic callus with a mitotic inhibitor. In one embodiment, the embryogenic callus is treated with the mitotic inhibitor for one day to three days, preferably three days. In one embodiment, the mitotic inhibitor is colchicine. In one embodiment, the embryogenic callus is treated with 0.1% to 0.5%, preferably 0.5% colchicine. In another embodiment, the mitotic inhibitor is oryzalin. In one embodiment, the embryogenic callus is treated with 0.1% to 0.5%, preferably 0.5% oryzalin. The mitotic inhibitor is added to the embryogenic callus induction medium, described above, prior to transfer of the embryogenic callus to the fresh initiation medium. The culture conditions for culturing in the presence of the mitotic inhibitor is the same as for somatic embryogenic callus induction. Following treatment with the mitotic inhibitor, the treated embryogenic callus is placed on fresh initiation medium for the development and maturation of somatic embryos and cultured as described above. The mature somatic embryos are placed on the germination medium and cultured as described above to germinate double haploid plantlets as described above.
Embryogenic callus prepared as described in Example 5 which is above to develop into somatic embryos (after forty days of embryogenic callus induction) was treated with different concentration of colchicines (0.1-1%) for three-days. The culture condition (temperature, photoperiod and light) are same as described above. After the colchicine treatment, the treated embryogenic callus was transferred to fresh initiation medium (MS medium containing 2,4-D (6.78 μM)) and cultured as described in Example 5 for the development of somatic embryos. The mature somatic embryos were transferred to germination media (MS medium fortified with GA3 and IBA) and cultured as described in Example 5 for plantlet development.

Where [6] appears, read: hormone alone in MS initiation medium, 2,4-D 2.26, 4.52, 6.78, 9.02 μM, IAA 0.71-5.70 μM, IBA 0.615-4.92 μM.

In the case of `O=C(O)COc1ccc(Cl)cc1Cl` [2,4-D, 2,4-dichlorophenoxyacetic acid], in data set [1] (MS medium containing 2,4-D), the “somatic embryo development (globular, heart, torpedo and cotyledon-shaped)” value is listed as “effective”. For the same compound, the “outcome of continuous culture of somatic embryos” value in data set [1] (continuous culture in MS medium containing 2,4-D) is on record as “abnormal somatic embryo formation without germination”. The “induction of embryogenic callus” value in data set [2] (MS medium supplemented with 2,4-D, dark conditions) is reported as “induced embryogenic callus; also recorded: vital”; in data set [2] (MS medium supplemented with 2,4-D, in the presence of light) it was “not result in the induction of embryogenic callus”; in data set [2] (setting [6]), “effective in inducing embryogenic callus”.

`Nc1ncnc2nc[nH]c12.O=S(=O)(O)O` [AdSO4, adenine sulphate]: the “type of callus induced” value in data set [2] (addition to callus induction medium) is listed as “induction of greenish compact callus that becomes non-embryogenic”. In addition, the “effect on somatic embryo development” value in data set [3] (13.6 μM added) is “stimulated the process of somatic embryo development”. In addition, the “growth of germinated plantlets” value in data set [4] (sulphate) is recorded as “enhanced the growth of germinated plantlets”.

Regarding `c1ccc(CNc2ncnc3nc[nH]c23)cc1` [BA, 6-benzylaminopurine], the “growth of germinated plantlets” value in data set [4] is on record as “enhanced the growth of germinated plantlets”.

In the case of `O=C(O)Cc1c[nH]c2ccccc12` [IAA, indole-3-acetic acid], the “induction of embryogenic callus” value in data set [2] (setting [6]) was “induced only non-embryogenic callus”. Moreover, in data set [4], the “germination of somatic embryos” value was “not effective”.

For `O=C(O)CCCc1c[nH]c2ccccc12` [IBA, indole-3-butyric acid], in data set [2] (setting [6]), the “induction of embryogenic callus” value was “induced only non-embryogenic callus”. In data set [4], the “germination of somatic embryos” value is listed as “effective; also recorded: occurred”.

Take `c1coc(CNc2ncnc3[nH]cnc23)c1` [KN, kinetin]: in data set [3] (MS medium with KN 2.3 μM and IBA 1.0 μM), the “development of somatic embryos” value was “developed”. Further, in data set [3] (MS medium with KN 9.3 μM), the “induction of embryogenic callus from leaf explants” value was “induced”. Also, the “growth of germinated plantlets” value in data set [4] is reported as “enhanced the growth of germinated plantlets”.

Consider `O=C(O)Cc1cccc2ccccc12` [NAA], for which, in data set [4], the “germination of somatic embryos” value is reported as “not effective”.

Regarding `O=C(Nc1ccccc1)Nc1cnns1` [TDZ, thidiazuron], in data set [4], the “growth of germinated plantlets” value was “enhanced the growth of germinated plantlets”.

With `COc1cc2c(c(OC)c1OC)-c1ccc(OC)c(=O)cc1[C@@H](NC(C)=O)CC2` [colchicines, colchicine], the “most effective concentration for production of double haploid plantlets” value in data set [5] (0.1-1% tested, three days treatment of embryogenic callus) worked out at 0.5%. Moreover, in data set [5] (concentration above 0.5%), the “effect on callus at higher concentration” value is “callus become brown and died”. Further, the “morphological characters of treated plantlets” value in data set [5] (plantlets from treated embryogenic callus) is reported as “like double haploid”.
